Data reported in PMC5322872, “ALKBH7 Variant Related to Prostate Cancer Exhibits Altered Substrate Binding” (PLoS Computational Biology, 2017).

Biological target: T1, ALKBH7 (Homo sapiens, UniProt Q9BT30)
T1 sequence (Q9BT30 17-215): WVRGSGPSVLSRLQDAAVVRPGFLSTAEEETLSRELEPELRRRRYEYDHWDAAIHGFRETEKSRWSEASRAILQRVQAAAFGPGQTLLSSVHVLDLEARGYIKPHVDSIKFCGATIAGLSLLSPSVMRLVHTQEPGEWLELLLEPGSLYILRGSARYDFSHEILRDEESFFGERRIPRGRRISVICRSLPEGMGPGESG
Assay: anaerobic difference UV-Vis spectroscopy (MLCT transition at […] nm)
Type: binding
Settings: 0.3 mM protein, 100 uM Fe(II), α-kg 2 mM in Fig 4 legend but 0.2 mM in Methods

O=C(O)CCC(=O)C(=O)O [α-kg]
anaerobic difference UV-Vis spectroscopy (MLCT transition at 510 nm): The spectrum of WT ALKBH7·Fe(II)·α-kg minus that of ALKBH7·α-kg revealed the typical weak MLCT transitions
